Laboratory results taken from paper PMC7867265, “Phosphofructokinases A and B from Mycobacterium tuberculosis Display Different Catalytic Properties and Allosteric Regulation” (International Journal of Molecular Sciences, 2021).

How the values were obtained:
[1] = molecular target: T1, Pfk A (Mycobacterium tuberculosis, UniProt P9WID7)
T1 construct: gene pfkA

[2] = molecular target: T1, Pfk A; remark: listed apart in the source
[3] = molecular target: T2, Pfk B (Mycobacterium tuberculosis, UniProt P9WID3)
T2 construct: gene pfkB
T2 sequence (P9WID3 whole entry): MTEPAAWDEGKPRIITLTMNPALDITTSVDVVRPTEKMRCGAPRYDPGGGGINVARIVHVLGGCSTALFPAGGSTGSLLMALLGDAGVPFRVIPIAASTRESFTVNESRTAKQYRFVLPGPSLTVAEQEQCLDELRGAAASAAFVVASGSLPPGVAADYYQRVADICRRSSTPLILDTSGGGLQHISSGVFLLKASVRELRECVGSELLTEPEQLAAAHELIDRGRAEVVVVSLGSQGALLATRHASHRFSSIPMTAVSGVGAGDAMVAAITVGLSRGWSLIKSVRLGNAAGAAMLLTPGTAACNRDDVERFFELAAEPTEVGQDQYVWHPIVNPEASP

[4] = molecular target: T1, Pfk A; remark: listed apart in the source
[5] = molecular target: T1, Pfk A; remark: listed apart in the source

T1 sequence (P9WID7 whole entry): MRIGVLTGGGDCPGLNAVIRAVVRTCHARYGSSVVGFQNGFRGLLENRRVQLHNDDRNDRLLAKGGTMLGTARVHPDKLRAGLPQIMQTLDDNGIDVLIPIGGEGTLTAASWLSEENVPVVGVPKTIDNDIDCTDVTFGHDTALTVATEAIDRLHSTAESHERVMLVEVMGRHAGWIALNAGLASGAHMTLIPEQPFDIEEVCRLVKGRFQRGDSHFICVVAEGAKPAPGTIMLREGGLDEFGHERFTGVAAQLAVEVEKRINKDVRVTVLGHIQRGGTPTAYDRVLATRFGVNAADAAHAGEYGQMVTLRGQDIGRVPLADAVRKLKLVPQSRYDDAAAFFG

## Nc1ncnc2c1ncn2[C@@H]1O[C@H](COP(=O)(O)OP(=O)(O)OP(=O)(O)O)[C@@H](O)[C@H]1O [ATP]
[1]
  K1/2 (Km): 1.5 ± 0.3 mM

## O=P(O)(O)OC[C@H]1OC(O)(CO)[C@@H](O)[C@@H]1O (some centres unmarked) [F6P]
[1]
  K1/2 (Km): 13.2 ± 2.0 mM

## O=P(O)(O)OC[C@H]1OC(O)(COP(=O)(O)O)[C@@H](O)[C@@H]1O (some centres unmarked) [F16bP]
[2]
  feedback inhibition, modified coupled assay II: Pfk A was efficiently inhibited by F16bP within the low micromolar concentration range

## O=P(O)(O)OC[C@H]1O[C@@](CO)(OP(=O)(O)O)[C@@H](O)[C@@H]1O [F26bP]
[3]
  % activation at 100 μM: 20%
[4]
  % activation at 100 μM: 10%

## Nc1nc2c(ncn2[C@@H]2O[C@H](COP(=O)(O)OP(=O)(O)O)[C@@H](O)[C@H]2O)c(=O)[nH]1 [GDP]
[5]
  inhibition, coupled assay I: Pfk A was found to be efficiently inhibited also by GDP within the millimolar concentration range

## C=C(OP(=O)(O)O)C(=O)O [PEP]
[5]
  inhibition, coupled assay I: efficient Pfk A inhibition can be achieved by a low micromolar concentration of this metabolite

## O=C(O)CC(O)(CC(=O)O)C(=O)O [citrate]
[5]
  inhibition, coupled assay I: Citrate also inhibited Pfk A, however, in millimolar concentrations
